“Also recorded” adds a separate entry of the source. Residues, ends and D or L forms follow the SMILES beside them.
Tests used:
[1] = test system: chimera #1, Nav1.5 (Nav1.7-DII-S3-S4); test: Whole-cell patch clamp, chimera #1 in HEK293 cells; format: cell-based, rat Nav1.5 / human Nav1.7; conditions: −10 mV from −80 mV
Description: Many animal toxins alter activation or inactivation of sodium channels by binding to the S3–S4 regions of channels, which are probably the external linkers or voltage sensors of sodium channels. α-Scorpion toxins slow down fast-inactivation of sodium channels by binding to the extracellular linker loop of DIVS3-S4 (neurotoxin site 3). Meanwhile, β-scorpion toxins that interact with DIIS3-S4 linker enhance the activation of sodium channels by trapping DII voltage sensor in an activated state. As Nav1.5 channel is resistant to the inhibition of JZTX-34, we investigated the binding site of JZTX-34 to Nav1.7 by constructing chimeric channels between Nav1.5 and Nav1.7. […]
The HEK293T cells were maintained in standard culture conditions (5% CO2 and 37 °C). […] After culturing for 36–72 h, cells with obvious green fluorescence were selected for sodium currents recordings the internal solution for sodium currents recording that contained (in mM) 140 CsF, 5 NaCl, 10 HEPES, 3 Na2-ATP, and 10 EGTA. […]
Sodium currents were recorded from DRG, HEK293, and ND cells by the whole-cell patch-clamp technique at 25 °C. […] Experiments date were acquired from whole-cell Axon 700B patch clamp amplifier (Molecular Devices, Sunnyvale, CA, USA) and analyzed by the program Clampfit10.0 (Molecular Devices, Sunnyvale, CA, USA) and Sigmaplot. […]

hot plate test in mice = test: Hot plate test; format: in vivo, mouse (Kunming); conditions: for hot plate latency: 120 min, baseline about 10 s, n = 6
Procedure: Figure 6 Effects of JZTX-34 on pain. (A) Effects of JZTX-34 on the early phase (0–5 min) and late phase (15–30 min) of formalin-induced paw licking response in mice. (B) Effects of JZTX-34 on the acetic acid-induced writhing response in mice. (C)Effects of JZTX-34 on the hot plate test in mice.
Mice with a latency time about 10 s were selected for the hot plate test. […] After administration of test samples, the latency time was recorded at the time points of 30 min, 60 min, 120 min, and 180 min (Figure 6C). Negative control animals received the same volume of vehicle.
The synthesized JZTX-34 was obtained according to the procedure as previously described. […] Rats (Sprague-Dawley) and Kunming mice were maintained in the Laboratory of Protein Chemistry of Hunan Normal University. All of the experimental involving animals were approved by the Animal Care and Use Committee of Hunan Normal University (2016-273, 13 October 2016).
Mice were put on a hot plate apparatus (model HZ66-ZH-YLS-6B, Shanghai, China) in order to test response time to a thermal stimulus. The responses time of mice at about 10 s was selected for the test. […] Hind paw licking or jumping were regarded as a sign to avoid heat nociception.
Data from Axon 700B patch clamp were analyzed by Clampfit10.0 (Molecular Devices, Sunnyvale, CA, USA). Dose-response curves were fitted by the Hill logistic equation: y = 1 − (1 − fmax)/[…]. In this equation, n stands an empirical Hill coefficient and fmax is the fraction of current resistant to inhibition at high toxin (Tx) concentration. The G-V curves were obtained by calculating the conductance (G) at each voltage (V) using the equation G = I/(V1 − Vrev), with Vrev being the reversal potential determined for each cell individually. G-V curves were fitted using a Boltzmann equation—y = 1/(1 + exp[(Va − V)/κ])—in which Va, V, and κ represent midpoint voltage of kinetics, test potential, and slope factor, respectively. […] Statistical significance was calculated using Student’s t-test and was defined as p < 0.05.

CC(C)C[C@@H]1NC(=O)[C@H](Cc2c[nH]c3ccccc23)NC(=O)[C@H](CCC(=O)O)NC(=O)[C@H](CCCNC(=N)N)NC(=O)[C@@H](NC(=O)[C@H](C)N)CSSC[C@@H]2NC(=O)[C@@H]3CSSC[C@@H](C(=O)N[C@H](C(=O)N[C@@H](Cc4c[nH]c5ccccc45)C(=O)N[C@@H](CC(=O)O)C(=O)N[C@@H](Cc4c[nH]c5ccccc45)C(=O)N[C@H](C(=O)N[C@H](C(=O)O)C(C)C)[C@@H](C)O)C(C)C)NC(=O)[C@H](Cc4c[nH]cn4)NC(=O)[C@H](Cc4ccc(O)cc4)NC(=O)[C@@H]4CCCN4C(=O)[C@H](Cc4c[nH]c5ccccc45)NC(=O)[C@H](CCCCN)NC(=O)[C@H](CCCCN)NC(=O)[C@H](CCCNC(=N)N)NC(=O)[C@H](CSSC[C@H](NC(=O)CNC(=O)CNC1=O)C(=O)N[C@@H](CO)C(=O)N[C@@H](CCCCN)C(=O)N[C@@H](CC(=O)O)C(=O)N[C@@H](C)C(=O)N[C@@H](CC(=O)O)C(=O)N3)NC(=O)[C@H](CCC(=O)O)NC(=O)[C@H](CC(C)C)NC(=O)[C@H](Cc1c[nH]cn1)NC(=O)[C@H](C)NC2=O [JZTX-34, Jingzhaotoxin-34] (HELM PEPTIDE1{A.C.R.E.W.L.G.G.C.S.K.D.A.D.C.C.A.H.L.E.C.R.K.K.W.P.Y.H.C.V.W.D.W.T.V}$PEPTIDE1,PEPTIDE1,2:R3-16:R3|PEPTIDE1,PEPTIDE1,9:R3-21:R3|PEPTIDE1,PEPTIDE1,15:R3-29:R3$$$V2.0; N-terminus and C-terminus assumed)
inhibition of chimera #1 currents ([1]; 1 µM): 47.6 ± 3.6%
inhibition of chimera #1 currents ([1]; 10 µM): 79.5 ± 2.8%
hot plate latency (hot plate test in mice; 0.5 mg/kg i.p.): 18.3 s
hot plate latency (hot plate test in mice; 1 mg/kg i.p.): 23.0 s
hot plate latency (hot plate test in mice; 2 mg/kg i.p.): 31.6 s
time of maximal analgesia, hot plate (hot plate test in mice; 0.5, 1 or 2 mg/kg i.p.): 120 min
hot plate, analgesia vs morphine (hot plate test in mice; JZTX-34 2 mg/kg vs morphine 5 mg/kg): longer duration and is more effective than morphine; also recorded: longer and stronger analgesia effects than 5 mg/kg morphine
